ChEMBL document CHEMBL2150920, “Discovery of a potent and selective small molecule hGPR91 antagonist” (Bioorg Med Chem Lett, 2011)
Blank lines part the entries; values can stand above or below the compound they belong to. Activity calls are given as the source filed them. No cut-off for these calls is given here.

Key:
Liver microsomes = assay: Intrinsic clearance in rat liver microsomes preincubated for 5 mins before addition of NADPH measured after 30 mins by LC/MS/MS analysis; type: ADME, Microsome; conditions: 0.5 h
Succinate receptor 1 [1] = molecular target: T1, Succinate receptor 1 (Homo sapiens, UniProt Q9BXA5); assay: Antagonist activity at human GPR91 receptor expressed in CHO-K1 cells co-expressing Galpha and Gqi5 G-protein assessed as inhibition of succinate-induced increase in intracellular calcium level by FLIPR assay; type: functional, cell-based
T1 sequence (Q9BXA5 whole entry): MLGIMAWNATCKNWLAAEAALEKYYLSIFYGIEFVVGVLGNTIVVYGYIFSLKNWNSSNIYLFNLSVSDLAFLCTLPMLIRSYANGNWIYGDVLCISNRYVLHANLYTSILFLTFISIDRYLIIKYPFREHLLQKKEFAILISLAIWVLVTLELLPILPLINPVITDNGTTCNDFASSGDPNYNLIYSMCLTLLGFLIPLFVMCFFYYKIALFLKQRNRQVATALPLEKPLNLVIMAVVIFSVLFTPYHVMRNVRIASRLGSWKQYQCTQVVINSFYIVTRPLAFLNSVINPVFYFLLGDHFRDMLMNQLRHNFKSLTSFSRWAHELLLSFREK

[2] = molecular target: T2, Succinate receptor 1 (Homo sapiens) (UniProt Q9BXA5); assay: Antagonist activity at human GPR91 receptor expressed in CHO-K1 cells co-expressing Galpha and Gqi5 G-protein assessed as inhibition of succinate-induced increase in intracellular calcium level at 10 uM by FLIPR assay; type: functional, cell-based
T2 sequence (whole entry): T1 sequence (Q9BXA5 whole entry)

Succinate receptor 1 [3] = molecular target: T3, Succinate receptor 1 (Rattus norvegicus, UniProt Q6IYF9); assay: Antagonist activity at rat GPR91 receptor expressed in CHO-K1 cells co-expressing Galpha and Gqi5 G-protein assessed as inhibition of succinate-induced increase in intracellular calcium level by FLIPR assay; type: functional, cell-based
T3 sequence (Q6IYF9 whole entry): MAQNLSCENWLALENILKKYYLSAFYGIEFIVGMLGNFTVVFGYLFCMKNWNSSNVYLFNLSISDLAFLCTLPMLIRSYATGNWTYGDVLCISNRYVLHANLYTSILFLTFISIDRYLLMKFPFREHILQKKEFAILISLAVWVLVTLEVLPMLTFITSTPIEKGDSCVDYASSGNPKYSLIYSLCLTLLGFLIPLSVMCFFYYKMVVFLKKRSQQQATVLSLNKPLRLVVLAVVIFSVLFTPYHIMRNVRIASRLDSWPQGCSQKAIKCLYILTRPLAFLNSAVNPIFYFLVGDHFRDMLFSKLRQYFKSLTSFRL

[4] = Volume of distribution at steady state in Wistar rat at 5 mg/kg, iv; type: ADME, organism-based; set-up: dose 5 mg/kg, route intravenous; conditions: in vivo, read-out: Vdss
[5] = Terminal half life in Wistar rat at 5 mg/kg, iv; type: ADME, organism-based; set-up: dose 5 mg/kg, route intravenous; conditions: in vivo, read-out: beta t1/2 (converted)
[6] = molecular target: 2-oxoglutarate receptor 1 (Homo sapiens, UniProt Q96P68); assay: Antagonist activity at human GPR99 receptor expressed in CHO-K1 cells co-expressing Galpha and Gqi5 G-protein assessed as inhibition of succinate-induced increase in intracellular calcium level at by FLIPR assay; type: functional, cell-based
Sequence of 2-oxoglutarate receptor 1 (Q96P68 whole entry, looked up): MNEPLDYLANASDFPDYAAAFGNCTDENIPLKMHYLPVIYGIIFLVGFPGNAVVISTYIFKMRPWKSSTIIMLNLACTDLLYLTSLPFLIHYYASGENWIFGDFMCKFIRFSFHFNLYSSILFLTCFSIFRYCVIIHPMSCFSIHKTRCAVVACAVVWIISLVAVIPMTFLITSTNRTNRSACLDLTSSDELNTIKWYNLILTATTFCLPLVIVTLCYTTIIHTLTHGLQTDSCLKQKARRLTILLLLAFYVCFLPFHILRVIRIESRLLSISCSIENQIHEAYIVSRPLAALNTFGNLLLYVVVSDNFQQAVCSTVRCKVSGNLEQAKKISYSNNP

[7] = Cmax in Wistar rat at 5 mg/kg, iv by LC/MS/MS analysis; type: ADME, organism-based; set-up: dose 5 mg/kg, route intravenous; conditions: in vivo
[8] = Plasma clearance in Wistar rat at 5 mg/kg, iv; type: ADME, organism-based; set-up: dose 5 mg/kg, route intravenous
[9] = Cmax in Wistar rat at 30 mg/kg, po by LC/MS/MS analysis; type: ADME, organism-based; set-up: dose 30 mg/kg, route oral; conditions: in vivo
[10] = Cmax in Wistar rat at 50 mg/kg, ip by LC/MS/MS analysis; type: ADME, organism-based; set-up: dose 50 mg/kg, route intraperitoneal; conditions: in vivo
[11] = Plasma concentration in Wistar rat plasma at 50 mg/kg, ip at 2 hrs; type: ADME, organism-based; set-up: dose 50 mg/kg, route intraperitoneal
[12] = Tmax in Wistar rat at 50 mg/kg, ip; type: ADME, organism-based; set-up: dose 50 mg/kg, route intraperitoneal; conditions: in vivo
[13] = Tmax in Wistar rat at 30 mg/kg, po; type: ADME, organism-based; set-up: dose 30 mg/kg, route oral; conditions: in vivo
[14] = Plasma concentration in Wistar rat plasma at 30 mg/kg, po at 4 hrs; type: ADME, organism-based; set-up: dose 30 mg/kg, route oral
[15] = Plasma concentration in Wistar rat plasma at 50 mg/kg, ip at 4 hrs; type: ADME, organism-based; set-up: dose 50 mg/kg, route intraperitoneal
[16] = Plasma concentration in Wistar rat plasma at 30 mg/kg, po at 2 hrs; type: ADME, organism-based; set-up: dose 30 mg/kg, route oral
[17] = Plasma concentration in Wistar rat plasma at 50 mg/kg, ip at 8 hrs; type: ADME, organism-based; set-up: dose 50 mg/kg, route intraperitoneal
[18] = AUC (0 to 8 hrs) in Wistar rat plasma at 50 mg/kg, ip; type: ADME, organism-based; set-up: time < 8 hr, dose 50 mg/kg, route intraperitoneal
[19] = AUC (0 to 24 hrs) in Wistar rat plasma at 30 mg/kg, po; type: ADME, organism-based; set-up: time < 24 hr, dose 30 mg/kg, route oral
[20] = Oral bioavailability in Wistar rat plasma at 30 mg/kg; type: ADME, organism-based
[21] = Terminal half life in Wistar rat plasma at 30 mg/kg, po; type: ADME, organism-based; set-up: dose 30 mg/kg, route oral; conditions: read-out: beta t1/2 (converted)

SMILES: NC(C(=O)NCc1ccc(-c2ccc(F)c(C(F)(F)F)c2)cc1)c1ccc(-c2ccc3cccnc3n2)cc1 (configuration not stated)
Intrinsic clearance (Liver microsomes): 0.15 nmol/min/mg
IC50 (Succinate receptor 1 [1]): 330 nM

SMILES: O=C(CCCc1ccc2cccnc2n1)NCc1cc(-c2cccc(Cl)c2)no1
Intrinsic clearance (Liver microsomes): 0.09 nmol/min/mg
IC50 (Succinate receptor 1 [1]): 65 nM

SMILES: FC(F)(F)c1ccc(-c2nnc(CCCCc3ccc4cccnc4n3)o2)cc1C(F)(F)F
Intrinsic clearance (Liver microsomes): 0.3 nmol/min/mg
IC50 (Succinate receptor 1 [1]): 170 nM

SMILES: O=C(CCCc1ccc2cccnc2n1)NCc1cnc(-c2ccc(F)c(C(F)(F)F)c2)nc1
Intrinsic clearance (Liver microsomes): 0.2 nmol/min/mg
IC50 (Succinate receptor 1 [1]): 49 nM

SMILES: O=C(CCCc1ccc2cccnc2n1)NCc1csc(-c2cccc(Cl)c2)n1
Intrinsic clearance (Liver microsomes): 0.4 nmol/min/mg
IC50 (Succinate receptor 1 [1]): 700 nM

SMILES: O=C(CCCc1ccc2cccnc2n1)NCc1cc(-c2ccc(F)c(C(F)(F)F)c2)no1
IC50 (Succinate receptor 1 [3]): 135 nM
Intrinsic clearance (Liver microsomes): 0.12 nmol/min/mg
Cmax [9]: 37 µM
Cmax [10]: 22 µM
Vd [4]: 0.36 L/kg
half-life [5]: 66 min
concentration at 2 h [11]: 22 µM
Tmax [12]: 120 min
Tmax [13]: 30 min
IC50 [6]: > 30000 nM
concentration at 4 h [14]: 2.6 µM
Cmax [7]: 40 µM
concentration at 4 h [15]: 19 µM
concentration at 2 h [16]: 11.3 µM
concentration at 8 h [17]: 19 µM
clearance [8]: 4.7 mL/min/kg
AUC(0-t) at 8 h [18]: 267 µM·h
AUC(0-t) at 24 h [19]: 69 µM·h
bioavailability [20]: 26%
half-life [21]: 54 min
IC50 (Succinate receptor 1 [1]): 35 nM

SMILES: C[C@H](NC(=O)C(O)c1ccc(-c2ccc3cccnc3n2)cc1)c1ccc(-c2ccc(F)c(C(F)(F)F)c2)cc1 (some centres not stated)
Intrinsic clearance (Liver microsomes): 0.2 nmol/min/mg
IC50 (Succinate receptor 1 [1]): 18 nM

More lines, now with the values ahead:

Intrinsic clearance (Liver microsomes): 0.17 nmol/min/mg
IC50 (Succinate receptor 1 [1]): 1000 nM
SMILES: O=C(CCCc1ccc2cccnc2n1)NCc1ccc(-c2ccccc2)cc1

Intrinsic clearance (Liver microsomes): 0.4 nmol/min/mg
IC50 (Succinate receptor 1 [1]): 65 nM
SMILES: CCc1cccc(-c2ccc(CNC(=O)CCCc3ccc4cccnc4n3)cc2)c1

inhibition [2]: inactive
Intrinsic clearance (Liver microsomes): 0.1 nmol/min/mg
SMILES: N#Cc1cccc(-c2ccc(CNC(=O)CCCc3ccc4cccnc4n3)cc2)c1

inhibition [2]: inactive
Intrinsic clearance (Liver microsomes): 0.04 nmol/min/mg
SMILES: NC(=O)c1cccc(-c2ccc(CNC(=O)CCCc3ccc4cccnc4n3)cc2)c1

inhibition [2]: inactive
SMILES: CC(=O)Nc1cccc(-c2ccc(CNC(=O)CCCc3ccc4cccnc4n3)cc2)c1

Intrinsic clearance (Liver microsomes): 0.6 nmol/min/mg
IC50 (Succinate receptor 1 [1]): 1000 nM
SMILES: COc1cccc(-c2ccc(CNC(=O)CCCc3ccc4cccnc4n3)cc2)c1

IC50 (Succinate receptor 1 [3]): 100 nM
Intrinsic clearance (Liver microsomes): 0.42 nmol/min/mg
Vd [4]: 0.7 L/kg
half-life [5]: 48 min
IC50 [6]: 2000 nM
Cmax [7]: 19 µM
clearance [8]: 14.8 mL/min/kg
IC50 (Succinate receptor 1 [1]): 11 nM
SMILES: C[C@H](NC(=O)CCCc1ccc2cccnc2n1)c1ccc(-c2cccc(Cl)c2)cc1
